Reference: DBAASP
In brackets after ≈: the same amount, converted by molar mass. Several values for one entry are separate records, joined by “and”; a condition that tells them apart may be missing. Equal values may be shown once.

Experiments:
Experiment in all cases: ≥ marks a high value that may be exact or a test limit, other limits are often not marked, values filed in µg/mL are converted to µM
[1] = system: Acinetobacter baumannii ATCC 17978D-5
[2] = system: Enterococcus faecium ATCC 700221
[3] = system: Klebsiella aerogenes ATCC 13048
[4] = system: Pseudomonas aeruginosa ATCC 19660
[5] = system: Pseudomonas aeruginosa ATCC 27853
[6] = system: Staphylococcus aureus ATCC 33591
[7] = system: Staphylococcus epidermidis ATCC 51625
[8] = system: Streptococcus pneumoniae ATCC 49619
[9] = system: Escherichia coli ATCC 25404
[10] = system: Escherichia coli O157
[11] = system: Listeria monocytogenes
[12] = system: Micrococcus luteus ATCC 10420
[13] = system: Salmonella typhimurium
[14] = system: Staphylococcus aureus ATCC 25923
[15] = system: Staphylococcus epidermidis ATCC 9709
[16] = system: Klebsiella pneumoniae
[17] = system: Staphylococcus aureus
[18] = system: Vibrio cholerae N16961
[19] = system: Candida albicans ATCC 10231
[20] = system: Escherichia coli D31
[21] = system: Pseudomonas aeruginosa ATCC 15442
[22] = system: Streptococcus mutans ATCC 25175

SMILES: C[C@H](NC(=O)[C@H](Cc1ccccc1)NC(=O)[C@H](C)NC(=O)[C@H](Cc1ccccc1)NC(=O)[C@H](C)NC(=O)[C@H](Cc1ccccc1)NC(=O)[C@H](CCCCN)NC(=O)[C@H](CCCCN)NC(=O)[C@H](C)NC(=O)[C@H](Cc1ccccc1)NC(=O)[C@H](CCCCN)NC(=O)[C@H](CCCCN)NC(=O)[C@H](Cc1ccccc1)NC(=O)[C@H](CCCCN)NC(=O)[C@H](CCCCN)NC(=O)[C@H](C)NC(=O)[C@H](Cc1ccccc1)NC(=O)[C@H](CCCCN)NC(=O)[C@H](CCCCN)NC(=O)[C@H](C)NC(=O)[C@@H](N)Cc1ccccc1)C(=O)N[C@@H](Cc1ccccc1)C(=O)O [FAKKFAKKFKKFAKKFAFAFAF]
- MIC [1]: 12.1 µM (≈ 32 µg/mL)
- MIC [2]: 12.1 µM (≈ 32 µg/mL)
- MIC [3]: 12.1 µM (≈ 32 µg/mL)
- MIC [4]: 12.1 µM (≈ 32 µg/mL)
- MIC [5]: 12.1 µM (≈ 32 µg/mL)
- MIC [6]: 24.2 µM (≈ 64 µg/mL)
- MIC [7]: 3.02 µM (≈ 8 µg/mL)
- MIC [8]: 6.04 µM (≈ 16 µg/mL)

SMILES: CC(C)C[C@H](NC(=O)[C@H](CC(C)C)NC(=O)[C@H](CCCCN)NC(=O)[C@H](CO)NC(=O)[C@H](CC(C)C)NC(=O)[C@H](C)NC(=O)[C@H](Cc1cnc[nH]1)NC(=O)[C@H](Cc1c[nH]c2ccccc12)NC(=O)[C@H](CC(C)C)NC(=O)[C@H](C)NC(=O)CNC(=O)[C@H](CC(C)C)NC(=O)[C@@H](N)Cc1ccccc1)C(=O)O [FLGALWHALSKLL]
- MIC [9]: ≥ 64 µM
- MIC [10]: ≥ 64 µM
- MIC [11]: 8 µM (≈ 11.8 µg/mL)
- MIC [12]: 2 µM (≈ 2.94 µg/mL)
- MIC [13]: ≥ 64 µM
- MIC [14]: 8 µM (≈ 11.8 µg/mL)
- MIC [15]: 4 µM (≈ 5.88 µg/mL)

SMILES: CC[C@H](C)[C@H](NC(=O)CNC(=O)[C@H](CC(C)C)NC(=O)[C@H](CC(C)C)NC(=O)[C@H](C)NC(=O)[C@H](CO)NC(=O)[C@H](CCCCN)NC(=O)[C@@H](NC(=O)CN)[C@@H](C)CC)C(=O)N[C@@H](C)C(=O)N[C@@H](CCCCN)C(=O)N[C@@H](CC(N)=O)C(=O)N[C@H](C(=O)NCC(=O)N[C@@H](CCSC)C(=O)N[C@@H](CO)C(=O)N[C@@H](CC(C)C)C(=O)N[C@@H](CC(C)C)C(=O)N[C@@H](CCC(N)=O)C(=O)N[C@@H](CCCCN)C(=O)N[C@@H](C)C(=O)N[C@@H](CCC(N)=O)C(=O)N[C@H]1CSSC[C@@H](C(N)=O)NC(=O)[C@H](CO)NC(=O)CNC(=O)[C@H](CO)NC(=O)[C@H](CC(C)C)NC(=O)[C@H](CCCCN)NC1=O)C(C)C [GIKSALLGIAKNVGMSLLQKAQCKLSGSC]
- MIC [16]: 8 µM (≈ 23.3 µg/mL)
- MIC [14]: 8 µM and 22 µM
- MIC [17]: 16 µM (≈ 46.7 µg/mL)
- MIC [18]: 10 µM (≈ 29.2 µg/mL)

SMILES: CC[C@H](C)[C@H](NC(=O)[C@@H](NC(=O)CN)C(C)C)C(=O)N[C@H](C(=O)N[C@@H](CC(=O)O)C(=O)N[C@@H](C)C(=O)N[C@@H](CC(C)C)C(=O)N[C@@H](CCCCN)C(=O)NCC(=O)N[C@@H](C)C(=O)N[C@@H](C)C(=O)N[C@@H](CCCCN)C(=O)N[C@H](C(=O)N[C@H](C(=O)N[C@@H](C)C(=O)N[C@@H](C)C(=O)N[C@@H](CCC(=O)O)C(=O)N[C@@H](CC(C)C)C(=O)N1CCC[C@H]1C(=O)N[C@@H](CCCN=C(N)N)C(=O)N[C@@H](CCCCN)C(=O)N[C@@H](C)C(=O)N[C@@H](Cc1cnc[nH]1)C(N)=O)C(C)C)[C@@H](C)O)[C@@H](C)O [GVITDALKGAAKTVAAELPRKAH]
- MIC [19]: > 100 µM
- MIC [20]: ≥ 100 µM
- MIC [21]: ≥ 100 µM
- MIC [14]: > 100 µM
- MIC [22]: ≥ 100 µM
